Results as given in the supplement of paper PMC10307832.

Legend:
Test in all cases: relative viability (nuclei count vs DMSO), 5 days (fraction); higher = more cells survive
[1] = compound: CC[C@H](C)N1C=C(C2=C(C=C(C=C21)C3=CN=C(C=C3)N4CCNCC4)C(=O)NCC5=C(C=C(NC5=O)C)C)C [GSK126] + Nc1ncn([C@H]2C[C@H](O)[C@@H](CO)O2)c(=O)n1 [Decitabine] (partner 2 µM)
Procedure, shortened: (§1)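 Lung cancer cell lines, seeded in 1536-well plates, were treated the following day by pin tool with a single drug or with five library-drug doses (not always all listed) in √10 steps on top of a fixed anchor-drug dose. Cells were fixed and nuclei stained in one step after 5 days, and nuclei were counted. Relative viability is the nuclei count for treated wells divided by that for vehicle wells, reported as medians of duplicate plates.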

[2] = compound: NS(=O)(=O)OC[C@@H]1C[C@@H](n2ccc3c(N[C@H]4CCc5ccccc54)ncnc32)C[C@@H]1O [MLN4924] + CCNC(=O)c1noc(-c2cc(C(C)C)c(O)cc2O)c1-c1ccc(CN2CCOCC2)cc1 [Luminespib] (partner 0.01 µM)
Procedure, shortened: as §1

[3] = compound: C1CC(C1)(C(=O)O)C(=O)O.[NH2-].[NH2-].[Pt+2] [Carboplatin] + CC(C)C[C@H](NC(=O)[C@H](Cc1ccccc1)NC(=O)c1cnccn1)B(O)O [Bortezomib] (partner 0.002 µM)
Procedure, shortened: as §1

[4] = compound: C1CC(C1)(C(=O)O)C(=O)O.[NH2-].[NH2-].[Pt+2] [Carboplatin] + C[C@@H](Oc1cc(-c2cnn(C3CCNCC3)c2)cnc1N)c1c(Cl)ccc(F)c1Cl [Crizotinib] (partner 1 µM)
Procedure, shortened: as §1

Row | Cell Line | relative viability ([1]; first compound 0.08 µM) | relative viability ([1]; first compound 0.253 µM) | relative viability ([1]; first compound 0.8 µM) | relative viability ([1]; first compound 2.53 µM) | relative viability ([1]; first compound 8 µM) | relative viability ([2]; first compound 0.04 µM) | relative viability ([2]; first compound 0.1265 µM) | relative viability ([2]; first compound 0.4 µM) | relative viability ([2]; first compound 1.265 µM) | relative viability ([2]; first compound 4 µM) | relative viability ([3]; first compound 0.08 µM) | relative viability ([3]; first compound 0.253 µM) | relative viability ([3]; first compound 0.8 µM) | relative viability ([3]; first compound 2.53 µM) | relative viability ([3]; first compound 8 µM) | relative viability ([4]; first compound 0.08 µM) | relative viability ([4]; first compound 0.253 µM) | relative viability ([4]; first compound 0.8 µM) | relative viability ([4]; first compound 2.53 µM) | relative viability ([4]; first compound 8 µM)
1 | PC-14 | 0.215 | 0.2 | 0.166 | 0.255 | 0.213 | 0.151 | 0.164 | 0.114 | 0.116 | 0.152 | 0.846 | 0.845 | 0.757 | 0.868 | 0.437 | 0.895 | 0.856 | 0.851 | 0.83 | 0.532
2 | ChaGo-K-1 | 0.526 | 0.506 | 0.525 | 0.537 | 0.544 | 0.469 | 0.399 | 0.258 | 0.256 | 0.177 | 1.08 | 0.837 | 0.916 | 0.786 | 0.406 | 1.14 | 1.09 | 0.943 | 0.647 | 0.579
3 | NCI-H441 | 0.248 | 0.236 | 0.143 | 0.214 | 0.234 | 0.36 | 0.387 | 0.276 | 0.208 | 0.245 | 0.239 | 0.777 | 0.618 | 0.459 | 0.364 | 0.72 | 0.925 | 0.618 | 0.791 | 0.655
4 | NCI-H661 | 0.626 | 0.506 | 0.498 | 0.535 | 0.563 | 0.744 | 0.691 | 0.484 | 0.385 | 0.351 | 0.915 | 0.856 | 0.716 | 0.613 | 0.763 | 1 | 1.05 | 0.98 | – | 0.843
5 | NCI-H727 | 1.01 | 1.03 | 0.804 | 0.89 | 0.864 | 0.31 | 0.382 | 0.368 | 0.383 | 0.235 | 1.08 | 1.01 | 0.88 | 0.774 | 0.471 | 0.988 | 0.953 | 0.704 | 0.614 | 0.317
6 | NCI-H1734 | 0.511 | 0.517 | 0.492 | 0.515 | 0.496 | 0.202 | 0.189 | 0.187 | 0.122 | 0.137 | 0.97 | 0.885 | 0.921 | 0.888 | 0.849 | 0.682 | 0.673 | 0.637 | 0.716 | 0.614
7 | EMC-BAC-2 | 1.05 | 0.974 | 0.878 | 0.893 | 0.936 | 0.906 | 0.495 | 0.303 | 0.276 | 0.325 | 1.14 | 1.02 | 1.13 | 1.05 | 0.957 | 0.738 | 0.755 | 0.76 | 0.681 | 0.642
8 | EKVX | 0.343 | 0.383 | 0.39 | 0.351 | 0.301 | 0.943 | 0.756 | 0.682 | 0.257 | 0.166 | 1.06 | 1.13 | 1.01 | 1.06 | 0.976 | 1.19 | 1.09 | 0.985 | 0.875 | 0.947
9 | NCI-H596 | 1.09 | 0.882 | 1.04 | 1.05 | 1.06 | 0.942 | 0.933 | – | 0.768 | 0.767 | 1.21 | 1.27 | 0.989 | 0.886 | 0.73 | 0.895 | 0.983 | 0.834 | 0.783 | 0.735
10 | LOU-NH91 | 0.831 | 0.813 | 0.838 | 0.793 | 0.823 | 0.334 | 0.3 | 0.281 | 0.246 | 0.303 | 0.581 | 0.52 | 0.54 | 0.472 | 0.495 | 0.74 | 0.731 | 0.714 | 0.735 | 0.725
11 | NCI-H1437 | 0.584 | 0.569 | 0.536 | 0.499 | 0.527 | 0.783 | 1.05 | 0.811 | 0.626 | 0.226 | 0.526 | 0.486 | 0.598 | 0.453 | 0.425 | 0.909 | 0.96 | 0.892 | 0.936 | 0.805
12 | H3255 | 0.479 | 0.628 | 0.665 | 0.502 | 0.684 | 0.843 | 0.73 | 0.541 | 0.288 | 0.292 | 0.832 | 0.762 | 0.874 | 0.865 | 0.526 | 0.874 | 0.884 | 0.825 | 0.79 | 0.726
13 | NCI-H1666 | 0.731 | 0.755 | 0.755 | 0.82 | 0.726 | 1 | 1.05 | 0.498 | 0.324 | 0.342 | 0.842 | 0.776 | 0.789 | 0.774 | 0.724 | 0.997 | 1.07 | 0.838 | 0.917 | 0.568
14 | SK-LU-1 | 0.711 | 0.535 | 0.6 | 0.928 | 0.708 | 0.18 | 0.228 | 0.215 | 0.186 | 0.147 | 1.79 | 1.26 | 1.44 | 1.21 | 0.582 | 1.09 | 1.08 | 1.05 | 0.961 | 0.626
15 | LU99A | 0.986 | 0.915 | 1.03 | 0.916 | 0.999 | 0.248 | 0.177 | 0.203 | 0.194 | 0.206 | 1.01 | 1.23 | 1.04 | 0.968 | 0.757 | 0.62 | 0.665 | 0.556 | 0.464 | 0.422
